Data published in US20120046273A1, “COMPOUNDS AND COMPOSITIONS FOR COGNITION-ENHANCEMENT, METHODS OF MAKING, AND METHODS OF TREATING” (MITHRIDION, INC., priority 2009, published 2012).
“Also recorded” adds a separate entry of the source. Like-named read-outs stand apart in the source and are kept apart here. Values belong to the compound of their own block, whether it stands above or below them.

Key:
[1] = molecular target: T1, human muscarinic M1 receptors (Homo sapiens, UniProt P11229); test: Inositol phosphate production in huM1/A9L cells (IPOne TR-FRET); assay type: cell-based; settings: for huM1/A9L Smax: percentage of maximal stimulation by carbachol; for huM1/A9L ED50 relative to CCh: potency relative to carbachol
T1 construct: expressed in transfected cells; host or cells: A9L cells (gift from Professor W Messer)
T1 sequence (P11229 1-460): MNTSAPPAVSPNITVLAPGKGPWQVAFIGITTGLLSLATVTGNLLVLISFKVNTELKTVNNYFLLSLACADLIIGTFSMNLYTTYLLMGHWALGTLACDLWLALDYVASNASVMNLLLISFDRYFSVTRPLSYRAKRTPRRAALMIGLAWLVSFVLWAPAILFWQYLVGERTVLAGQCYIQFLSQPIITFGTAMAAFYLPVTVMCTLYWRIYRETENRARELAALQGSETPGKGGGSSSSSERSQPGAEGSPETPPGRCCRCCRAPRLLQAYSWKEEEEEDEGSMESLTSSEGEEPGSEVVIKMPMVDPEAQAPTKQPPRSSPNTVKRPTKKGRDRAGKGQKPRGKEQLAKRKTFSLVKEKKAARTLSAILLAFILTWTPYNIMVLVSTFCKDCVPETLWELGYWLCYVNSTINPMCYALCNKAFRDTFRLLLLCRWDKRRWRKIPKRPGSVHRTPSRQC
Method: (§1) Muscarinic M1 and M3 agonist activity was evaluated by measuring the stimulation of inositol phosphate (IP) production in the presence of lithium chloride from A9L cells transfected with expression plasmids containing human muscarinic M1 and M3 receptors, respectively. The cell lines were a gift from Professor W Messer, and the methods were as described in Tejada F R et al. J. Med. Chem. 2006; 49: 7518-31 except that the assay was scaled down to run in 384 well plates, and IP was measured in the cell lysates using the non-isotopic IPOne TR-FRET assay (CIS-BIO, Inc).
(§2) Cells were grown to 90% confluence in 384 well hi-base plates (Greiner Bio-One), compounds were added at suitable concentrations in growth medium containing 10 mM LiCL, buffered with an extra 10 mM HEPES (pH7.4), and incubated for 60 minutes at 37° C. Cells were lysed and assayed for IP following the manufacturer's instructions.
(§3) The value for a full agonist is 100%, while partial agonists give values below 100%.

[2] = molecular target: T2, human muscarinic M3 receptors (Homo sapiens, UniProt P20309); test: Inositol phosphate production in huM3/A9L cells (IPOne TR-FRET); assay type: cell-based; settings: for huM3/A9L Smax: percentage of maximal stimulation by carbachol; for huM3/A9L ED50 relative to CCh: potency relative to carbachol
T2 construct: expressed in transfected cells; host or cells: A9L cells (gift from Professor W Messer)
Method: as §1, §2, §3

[3] = system: apomorphine induced climbing; test: Apomorphine induced climbing model of psychosis; assay type: in vivo, CD-I mice; settings: mice, sc
Method: As described in Costall et. al. European Journal of Pharmacology 1978, 50, 39. individual CD-I mice, 1-2 months old, were placed in a cylindrical wire mesh cage (13.2 cm high×13.2 cm diameter) constructed of steel wire 1 mm thick spaced at 1.2 cm^2. Cylinders were placed in a standard OptiMICE mouse cage (29×32×9×29 cm wide and 14 cm high) with adequate wood chip bedding provided. Observations of climbing (defined as 3 or more paws off the ground) were carried out every 5 minutes at a duration of 1 minute for 30 minutes. Animals were injected subcutaneously under isoflurane anesthesia with test compounds, reference compounds, which included clozapine, haloperidol, olanzapine and xanomeline, or PBS as a control. This was followed 5 minutes later by 2 mg/kg apomorphine hydrochloride. All drugs were dissolved in PBS or a mixture of (by volume) 96% PBS and 4% hydroxypropyl-beta-cyclodextrin, and dosed at a rate of 5 ml per kilogram of body weight. Following injections, animals were replaced in the mesh cages and observed for climbing (defined as 3 or more paws off the ground) every 5 minutes for a duration of 1 minute for 60 minutes after dosing.

human FMO1 Supersomes = molecular target: T3, human FMO1 Supersomes (Homo sapiens, UniProt Q01740); test: Metabolism by flavin monoxygenase 1 (FMO1) Supersomes; assay type: in vitro ADME
T3 construct: purchased BD Biosciences 456241
T3 sequence (Q01740 1-532): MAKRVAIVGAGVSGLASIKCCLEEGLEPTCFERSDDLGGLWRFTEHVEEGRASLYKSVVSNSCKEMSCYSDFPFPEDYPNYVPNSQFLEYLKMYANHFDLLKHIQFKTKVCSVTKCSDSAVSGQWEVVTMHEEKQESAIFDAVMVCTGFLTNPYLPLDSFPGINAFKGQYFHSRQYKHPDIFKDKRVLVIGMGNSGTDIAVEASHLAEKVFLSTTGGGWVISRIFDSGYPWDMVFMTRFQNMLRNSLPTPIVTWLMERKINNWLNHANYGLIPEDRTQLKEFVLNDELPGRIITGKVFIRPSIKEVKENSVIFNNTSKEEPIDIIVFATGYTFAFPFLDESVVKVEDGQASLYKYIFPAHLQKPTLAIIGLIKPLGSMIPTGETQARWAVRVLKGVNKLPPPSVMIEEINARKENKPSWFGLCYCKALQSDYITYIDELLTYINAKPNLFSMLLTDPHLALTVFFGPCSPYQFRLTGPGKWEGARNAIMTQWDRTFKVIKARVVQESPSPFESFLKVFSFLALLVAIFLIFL
Method: […] Aliquots were removed every 10 minutes, and 1% formic acid was added to halt the reaction. Samples were centrifuged, filtered through 0.2 micron spinfilter and the amount of each compound in the supernatants was quantitated using LC/MS/MS.

[4] = system: pooled male Sprague-Dawley rat liver microsomes; test: Metabolism by rat liver microsomes; assay type: in vitro ADME; settings: 6 hours incubation
Method: (§4) Compounds were incubated with pooled male Sprague-Dawley rat liver microsomes (BD Biosciences, #452501) and an NADP-regenerating system in a phosphate buffer (pH 7.4) for a total of 6 hours. Aliquots were removed every 2 hours, and 1% formic acid was added to halt the reaction. Samples were centrifuged, filtered through 0.2 micron spinfilter and the amount of each compound in the supernatants was quantitated using LC/MS/MS.

[5] = system: pooled male human liver microsomes; test: Metabolism by human liver microsomes; assay type: in vitro ADME; settings: 6 hours incubation
Method: as §4, with “human” for “Sprague-Dawley rat”, “#452172)” for “#452501)”

[6] = system: salivary gland inositol phosphate signaling pathway; test: In vivo tissue inositol phosphate signaling pathway activation, salivary gland; parameters: species or system rat; settings: for block of increase in salivary gland inositol phosphate caused by 82: 1 mg/kg of 82; for inhibition of salivary gland inositol phosphate response to MCD-386: 50 mg/kg MCD-386, antagonist 0.3 mg/kg
Method: (§5) Experimental compounds or drug substances were administered using standard techniques to Long Evans Hooded rats weighing 225 to 350 grams, and which had been pretreated with a subcutaneous injection of lithium chloride at a suitable dose between 3 and 10 mmoles per kg. At suitable times the animals were briefly anesthetized using 5% isoflurane and euthanized by decapitation. The brains and submaxillary salivary glands were rapidly dissected out, and the hippocampuses were dissected from the brains. The dissected tissues were homogenized in a suitable volume of ice-cold phosphate-buffered saline containing 10 mM lithium chloride, pH7.4, using a tissue homogenizer, and used immediately or frozen in aliquots at −80degC. for future use. The concentration of inositol-1-phosphate was determined in the homogenates using the IPOne TR-FRET assay (CisBio cat no 621PAPEB), following the manufacturer's instruction

anesthetized rats = test: Salivation on iontophoretic transdermal delivery of agonist and antagonist from one patch; assay type: in vivo, rat; settings: patch with 1 mg of 82 plus 0.01mg antagonist
Method: Experimental compounds and drug substances were delivered transdermally in rats using iontophoresis as follows. The fur was shaved from the backs of Long Evans Hooded rats weighing 225 to 325 grams, using electric clippers. Experimental compounds and drug substances were formulated at suitable concentrations an aqueous mixture of the following composition:
The polyvinyl alcohol/water was heated to 95 degC. until it became clear, then the other constituents were added and mixed well. The mixture was introduced into suitable molds containing a disc-shaped cavity 2.2 cm diameter and 2.2 mm deep. Molds may be fabricated using two glass sheets separated by a silicone rubber sheet with suitable sized cavities and filling ports cut-outs. The molds were subject to 3 freeze-thaw cycles at −80degC. and 20degC. until a firm cryogel was obtained. The gels were separated from the molds and trimmed into a circular shape. The gel was placed in a silicone rubber casing with one face in contact with a circular silver foil anodic electrode (22 mm dia/250 microns thick), and the assembly was placed on the shaved skin of the rat such that the other face was in contact with the skin on one side of the back of the rat. The rubber casing formed a seal over and around the gel/electrode assembly. […] This was placed on the other side of the shaved back of the rat, the edges of the gel discs being about 20 mm apart at their nearest point. A DC voltage was applied across the two patches from a constant-current DC power supply and the voltage adjusted to obtain the desired current, such that the skin of the animal completed the electrical circuit.
The devices were placed on shaved backs of anesthetized rats and salivation was measured.
The animals were placed slightly head-down on an inclined, heated ramp. Rectal temperature was monitored using a thermocouple and the temperature of the heating pad was adjusted manually to maintain normal body temperature. Saliva was collected from the mouth by absorption onto pre-weighed slips of filter paper. The filter paper was changed periodically and the amount of saliva was measured by weighing the filter paper slips

[7] = system: hippocampal inositol phosphate signaling pathway; test: In vivo tissue inositol phosphate signaling pathway activation, hippocampus; parameters: species or system rat; settings: 1 mg/kg of 82; antagonist 0.03 mg/kg
Method: as §5

[8] = antagonist 0.1 mg/kg (oxybutinin or darifenacin)

T2 sequence (P20309 whole entry): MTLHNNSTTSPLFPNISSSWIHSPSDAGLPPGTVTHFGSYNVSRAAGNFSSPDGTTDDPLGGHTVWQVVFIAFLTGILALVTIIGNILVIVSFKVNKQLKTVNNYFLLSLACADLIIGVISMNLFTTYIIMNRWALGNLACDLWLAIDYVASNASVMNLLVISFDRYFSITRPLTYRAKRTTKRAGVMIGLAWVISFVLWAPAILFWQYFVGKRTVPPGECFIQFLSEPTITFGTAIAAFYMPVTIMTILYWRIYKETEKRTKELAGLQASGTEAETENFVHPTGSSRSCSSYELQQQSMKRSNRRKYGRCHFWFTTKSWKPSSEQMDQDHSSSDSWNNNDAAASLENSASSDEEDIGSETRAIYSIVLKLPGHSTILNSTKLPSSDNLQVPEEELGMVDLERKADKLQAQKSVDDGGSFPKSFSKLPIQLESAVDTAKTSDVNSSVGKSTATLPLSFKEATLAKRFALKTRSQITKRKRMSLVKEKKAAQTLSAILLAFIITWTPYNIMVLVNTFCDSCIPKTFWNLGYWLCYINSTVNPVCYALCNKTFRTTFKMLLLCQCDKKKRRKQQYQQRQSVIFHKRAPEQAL

PAMPA (? × 106): 7.95 ? × 106
Compound: Clc1cccc(Cl)c1N=C1NCCN1 [Clonidine, reference compound]

Compound: [2H]C([2H])([2H])c1noc(C2CCCNC2)n1 (stereo not shown) [Compound 88, 3-D3-Methyl-5-(piperidin-3-yl)-1,2,4-oxadiazole]
huM1/A9L Smax [1]: 116%
huM1/A9L ED50 relative to CCh [1]: + (potency 2-10x CCh)
huM3/A9L Smax [2]: 60%
huM3/A9L ED50 relative to CCh [2]: +/− (potency 0.5-2x CCh)
activity in the apomorphine induced climbing model [3]: potent and effective
extent of metabolism in FMO Supersomes (human FMO1 Supersomes): less than half metabolized
extent of metabolism in rat liver microsomes [4]: far more stable than compounds 126 and 127
extent of metabolism in human liver microsomes [5]: metabolized significantly less in human liver microsomes than in rat liver microsomes

Compound: Cc1noc(C2CN3CCC2CC3)n1 (stereo not shown) [Compound 127, 3-methyl-5-(quinuclidin-3-yl)-1,2,4-oxadiazole, reference compound]
selectivity between M1 and M3 receptors [1]: essentially non-selective
huM1/A9L Smax [1]: 50-100%
huM1/A9L ED50 relative to CCh [1]: ++ (potency >10x CCh)
huM3/A9L Smax [2]: 50-100%
huM3/A9L ED50 relative to CCh [2]: ++ (potency >10x CCh)
extent of metabolism in FMO Supersomes (human FMO1 Supersomes): almost completely metabolized
PAMPA (? × 106) (PAMPA test): 3.02 ? × 106
rate of crossing the lipid layer in the PAMPA test (PAMPA test): significantly better

Compound: CCN(CC)CC#CCOC(=O)C(O)(c1ccccc1)C1CCCCC1 (stereo not shown) [oxybutinin]
block of increase in salivary gland inositol phosphate caused by 82 [6, 8]: less effective
inhibition of salivary gland inositol phosphate response to MCD-386 [6]: less effective
reduction of salivation caused by transdermal iontophoretic delivery of 82 (anesthetized rats): reduced salivation, but were less effective

potency and efficacy at M1 muscarinic receptors [1]: reasonable potency and efficacy
huM1/A9L ED50 relative to CCh [1]: + (potency 2-10x CCh)
huM3/A9L ED50 relative to CCh [2]: + (potency 2-10x CCh)
extent of metabolism in rat liver microsomes [4]: nearly completely metabolized
extent of metabolism in human liver microsomes [5]: nearly completely metabolized
PAMPA (? × 106) (PAMPA test): 12.75 ? × 106
rate of crossing the lipid layer in the PAMPA test (PAMPA test): slightly better
Compound: Cc1noc(C2=CCCN(C)C2)n1 [Compound 126, 3-methyl-5-(1-methyl-1,2,5,6-tetrahydropyridin-3-yl)-1,2,4-oxadiazole, reference compound]
selectivity between M1 and M3 receptors [1]: some selectivity for M1 versus M3 receptors
extent of metabolism in FMO Supersomes (human FMO1 Supersomes): almost completely metabolized; also recorded: nearly completely metabolized

Compound: C[N+]1(C)CCC(OC(=O)C(O)(c2ccccc2)C2CCCC2)C1 (stereo not shown) [glycopyrrolate]
block of increase in salivary gland inositol phosphate caused by 82 ([6]; antagonist 0.03 mg/kg): can block
inhibition of salivary gland inositol phosphate response to MCD-386 [6]: virtually completed inhibited
block of increase in hippocampal inositol phosphate caused by 82 [7]: without blocking the increase in hippocampal inositol phosphate
reduction of salivation caused by transdermal iontophoretic delivery of 82 (anesthetized rats): greatly reduced

Compound: NC(=O)C(c1ccccc1)(c1ccccc1)[C@@H]1CCN(CCc2ccc3c(c2)CCO3)C1 [darifenacin]
block of increase in salivary gland inositol phosphate caused by 82 [6, 8]: less effective
inhibition of salivary gland inositol phosphate response to MCD-386 [6]: less effective
reduction of salivation caused by transdermal iontophoretic delivery of 82 (anesthetized rats): reduced salivation, but were less effective

Compound: CC(C)[N+](C)(CCOC(=O)C1c2ccccc2Oc2ccccc21)C(C)C [propantheline]
block of increase in salivary gland inositol phosphate caused by 82 ([6]; antagonist 0.03 mg/kg): can block
inhibition of salivary gland inositol phosphate response to MCD-386 [6]: virtually completed inhibited
block of increase in hippocampal inositol phosphate caused by 82 [7]: without blocking the increase in hippocampal inositol phosphate
reduction of salivation caused by transdermal iontophoretic delivery of 82 (anesthetized rats): greatly reduced
